Measured values taken from patent US20180273531A1, “PYRIMIDINE COMPOUND AND MEDICAL USE THEREOF” (Japan Tobacco Inc., priority 2004, published 2018).

Assays:
MEK1 and ERK2 = MEK1 and ERK2 (Homo sapiens, UniProt Q02750); assay: MEK enzyme inhibitory activity, MEK1 and ERK2 system; format: biochemical; conditions: 30° C., 20 min, [γ-32P]-ATP; average of two or three tests
Method: (§1) To an evaluation system where Raf (B-Raf or c-Raf) and MEK (MEK1 or MEK2) were mixed, or MEK (MEK1 or MEK2) and ERK2 were mixed was added a test substance dissolved in DMSO, and an ATP solution containing [γ-32P]-ATP was added to start the enzyme reaction. After reacting at 30° C. for 20 min, the reaction mixture was subjected to SDS-PAGE (sodium dodecylsulfate-polyacrylamide gel electrophoresis) and radioactivity of phosphorylated MEK or ERK2 was measured by Bio Imaging Analyzer (BAS2000, Fuji photo film).

[1] = system: Renal cancer cell line ACHN cell; assay: Growth inhibitory effect against cancer cell lines (3H-thymidine uptake), ACHN; format: cell-based; conditions: Homo sapiens, ACHN
Procedure, shortened: (§2)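 Cells seeded at 1.0×10^4/well, grown 24 hrs, then exposed to compound in DMSO for 18 hrs before 6 hrs pulse with ^3H-thymidine (0.25 μCi/well). Harvested cell-incorporated radioactivity counted; IC50 is the concentration halving uptake versus DMSO control, triplicate.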

c-Raf and MEK2 = c-Raf and MEK2 (Homo sapiens, UniProt P36507); assay: MEK enzyme inhibitory activity, c-Raf and MEK2 system; format: biochemical; conditions: 30° C., 20 min, [γ-32P]-ATP; average of two or three tests
Sequence of c-Raf and MEK2 (P36507 whole entry): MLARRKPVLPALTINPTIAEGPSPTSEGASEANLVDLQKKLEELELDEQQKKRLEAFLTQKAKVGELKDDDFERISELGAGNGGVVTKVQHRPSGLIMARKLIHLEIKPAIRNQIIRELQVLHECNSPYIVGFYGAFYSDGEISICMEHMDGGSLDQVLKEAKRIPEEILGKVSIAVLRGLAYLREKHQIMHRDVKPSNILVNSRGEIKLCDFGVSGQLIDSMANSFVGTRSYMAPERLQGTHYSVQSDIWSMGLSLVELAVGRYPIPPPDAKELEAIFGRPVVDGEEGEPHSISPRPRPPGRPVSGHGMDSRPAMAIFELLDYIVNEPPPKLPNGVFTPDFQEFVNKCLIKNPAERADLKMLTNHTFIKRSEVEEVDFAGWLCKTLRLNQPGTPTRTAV
Method: as §1

MEK2 and ERK2 = MEK2 and ERK2 (Homo sapiens, UniProt P36507); assay: MEK enzyme inhibitory activity, MEK2 and ERK2 system; format: biochemical; conditions: 30° C., 20 min, [γ-32P]-ATP; average of two or three tests
Sequence of MEK2 and ERK2 (P36507 whole entry): as above
Method: as §1

HT-29 cells = assay: Evaluation on the nude-mouse xenograft model; format: in vivo, mouse (Balb/c-nu/nu); conditions: HT-29, po, 240 h, 30 mg/kg orally twice a day for 10 days, tumor volume, treated vs vehicle group, n=6-8, read-out: T/C(%)
Method: HT-29 cells (5.0×10^6 cells/100 μL/head, suspended in HBSS (Hanks' solution)) in the logarithmic growth phase were implanted in a mouse (Balb/c-nu/nu) at the right lateral abdomen under ether anesthesia. After 5 days of implantation, the long diameter and short diameter of the tumor were measured, and the mice were divided into groups such that each group has an equivalent average tumor volume. For grouping, a grouping soft (general grouping system (Visions) was used. From the next day of the grouping, a test substance suspended in 0.5% MC (methyl cellulose) was repeatedly orally administered twice a day for 10 days (30 mg/kg). The tumor volume was measured twice a week and used as an index of antitumor activity. As a control, 0.5% MC was used and the test was performed with n=6-8.
The index (T/C (%)) of the antitumor activity was calculated according to the following formula.
T/C(%)=(The average tumor volume of the group treated with a test substance)/(The average tumor volume of the Vehicle group)×100
The tumor volume was calculated according to the following formula.
Tumor volume(mm^3)=L×W×W/2
(L: long diameter (mm) of tumor, W: short diameter (mm) of tumor)

p27 protein = p27 protein induction test (Western blotting); format: cell-based; conditions: test substance (0.1 1M), 24 hrs, ACHN cells or HT-29 cells, compared to DMSO, n=2
Procedure, shortened: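 ACHN or HT-29 cells grown 24 h, then treated with test substance at […] (DMSO) for 24 h. Lysates normalised by protein content and probed by Western blot with anti-p27 antibody. Band density quantified by densitometer against DMSO control, n=2 averaged.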

B-Raf and MEK1 = B-Raf and MEK1 (Homo sapiens, UniProt Q02750); assay: MEK enzyme inhibitory activity, B-Raf and MEK1 system; format: biochemical; conditions: 30° C., 20 min, [γ-32P]-ATP; average of two or three tests
Sequence of B-Raf and MEK1 (Q02750 whole entry): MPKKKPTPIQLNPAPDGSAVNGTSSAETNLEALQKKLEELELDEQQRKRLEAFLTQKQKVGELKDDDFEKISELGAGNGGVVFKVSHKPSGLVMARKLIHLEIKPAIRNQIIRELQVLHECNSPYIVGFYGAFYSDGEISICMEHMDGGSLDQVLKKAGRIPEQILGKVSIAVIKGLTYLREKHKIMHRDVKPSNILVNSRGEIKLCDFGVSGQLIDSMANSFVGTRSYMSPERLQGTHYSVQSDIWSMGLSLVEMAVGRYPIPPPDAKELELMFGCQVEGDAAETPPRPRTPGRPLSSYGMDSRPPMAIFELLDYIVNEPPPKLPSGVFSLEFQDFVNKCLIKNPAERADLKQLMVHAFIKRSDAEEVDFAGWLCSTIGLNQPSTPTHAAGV
Method: as §1

[2] = system: colorectal cancer cell line HT-29 cells; assay: Growth inhibitory effect against cancer cell lines (3H-thymidine uptake), HT-29; format: cell-based; conditions: Homo sapiens, HT-29, inhibition of 3H-thymidine uptake; test substance 18 hrs, then 3H-thymidine 6 hrs; triplicate
Procedure, shortened: as §2

B-Raf and MEK2 = B-Raf and MEK2 (Homo sapiens, UniProt P36507); assay: MEK enzyme inhibitory activity, B-Raf and MEK2 system; format: biochemical; conditions: 30° C., 20 min, [γ-32P]-ATP; average of two or three tests
Sequence of B-Raf and MEK2 (P36507 whole entry): as the sequence (P36507 whole entry) above
Method: as §1

p15 protein = assay: Evaluation of p15 induction activity (Western blotting); format: cell-based; conditions: test substance 0.1 μM, 24 hrs, ACHN cells or HT-29 cells, compared to DMSO, n=2
Procedure, shortened: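 p15 protein quantified by densitometry of anti-p15 Western blots (10 μg protein per lane, mean of n=2). Samples came from HT-29 or ACHN cells given 0.1 μM compound for 24 h after 24 h plating, with DMSO as control.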

TNF-α or IL-6 = assay: Evaluation on inflammatory cytokine production (LPS-stimulated PBMC); format: cell-based; conditions: human PBMC stimulated with LPS
[3] = system: ACHN cells or HT-29 cells; assay: Cell cycle analysis (flow cytometry, CycleTEST PLUS); format: cell-based; conditions: test substance less than 10 μM, 24 hrs, compared to DMSO, n=2, read-out: CELL RATIO OF G0/G1 PHASE
Method: ACHN cells or HT-29 cells were cultured in a 6 well plate at 2.5×10^5 cells/1.8 mL/well for 24 hrs, then a test substance (less than 10 μM) dissolved in DMSO was added. After 24 hrs, cells were detached using trypsin-EDTA and the DNA content of single cell was analyzed by flow cytometry method using a CycleTEST PLUS (BECKTON DICKINSON) kit, and the proportion of the cells in the G0/G1 phase·S phase·G2/M phase was calculated. As a control, DMSO was used and the test was performed with n=2.

[4] = system: mouse (DBA/1) collagen arthritis; conditions: 17 days after boost, 1 mg/kg oral once a day for 38 days; medium group 2.2; p<0.001; n=16
Method: Bovine type II collagen (100 μg) was resuspended with Freund's complete adjuvant and intracutaneously administered (initial immunization) to the tail head of mouse (DBA/1). Three weeks later, the same collagen was given to the tail head as boost, whereby multiple arthritis was induced. The test substance was oral administered forcibly once a day for 38 days from immediately before the initial immunization, and arthritis score after boost was calculated twice a week to examine the arthritis onset suppressing effect. For arthritis scores, the level of swelling of each of the four limbs of the mice was scored in 4 levels, and the average of the scores of four limbs was taken as the arthritis score of each individual. The test was performed with n=16.

Sequence of MEK1 and ERK2 (Q02750 whole entry): as the sequence (Q02750 whole entry) above

Structure (SMILES) | IC50 of various enzyme reaction system, MEK1 ERK2 (MEK1 and ERK2) [µM] | IC50 [1] [µM] | IC50 of various enzyme reaction system, c-Raf MEK2 (c-Raf and MEK2) [µM] | IC50 of various enzyme reaction system, MEK2 ERK2 (MEK2 and ERK2) [µM] | response vs control in vivo at 30 mg/kg (HT-29 cells) [%] | fold induction at 0.1 µM (p27 protein) | IC50 of various enzyme reaction system, B-Raf MEK1 (B-Raf and MEK1) [µM] | IC50 [2] [µM] | IC50 of various enzyme reaction system, B-Raf MEK2 (B-Raf and MEK2) [µM] | fold induction at 0.1 µM (p15 protein) | production of TNF-α or IL-6 (TNF-α or IL-6) | fold induction at up to 10 µM [3] | arthritis score [4]
Cn1c(=O)cc(Nc2ccc(I)cc2F)c2c(=O)n(C3CC3)c(=O)n(-c3cccc(NS(C)(=O)=O)c3)c21 [Example 1-257] | 1.3 | < 0.01 | 0.0078 | 1.6 | 26 | ≥ 1.5 | 0.0060 | < 0.01 | 0.0188 | – | – | – | –
C#Cc1ccc(Nc2c3c(=O)n(C4CC4)c(=O)n(-c4cccc(NS(C)(=O)=O)c4)c3c(C)c(=O)n2C)c(F)c1 [Example 3-8] | – | 0.01 to 0.1 | – | – | 27 | – | – | < 0.01 | – | ≥ 1.5 | – | – | –
CC(=O)Nc1cccc(-n2c(=O)n(C3CC3)c(=O)c3c(Nc4ccc(I)cc4F)n(C)c(=O)c(C)c32)c1 [Example 4-1, N-{3-[3-cyclopropyl-5-(2-fluoro-4-iodophenylamino)-6,8-dimethyl-2,4,7-trioxo-3,4,6,7-tetrahydro-2H-pyrido[4,3-d]pyrimidin-1-yl]-phenyl}-acetamide] | – | < 0.01 | – | – | 3 | – | – | < 0.01 | – | – | suppressed | – | –
CC(=O)Nc1cccc(-n2c(=O)n(C)c(=O)c3c(Nc4ccc(I)cc4F)n(C)c(=O)c(C)c32)c1 [Example 4-15] | – | 0.01 to 0.1 | – | – | 31 | ≥ 1.5 | – | < 0.01 | – | ≥ 1.5 | – | – | –
Cc1c(=O)n(C)c(Nc2ccc(I)cc2F)c2c(=O)n(C)c(=O)n(-c3cccc(NS(C)(=O)=O)c3)c12 [Example 4-16, N-{3-[5-(2-fluoro-4-iodophenylamino)-3,6,8-trimethyl-2,4,7-trioxo-3,4,6,7-tetrahydro-2H-pyrido[4,3-d]pyrimidin-1-yl]phenyl}methanesulfonamide] | – | < 0.01 | – | – | 10 | ≥ 1.5 | – | < 0.01 | – | ≥ 1.5 | suppressed | ≥ 1.2 | –
C#Cc1ccc(Nc2c3c(=O)n(C)c(=O)n(-c4cccc(NS(C)(=O)=O)c4)c3c(C)c(=O)n2C)c(F)c1 [Example 4-49] | – | 0.01 to 0.1 | – | – | 35 | ≥ 1.5 | – | < 0.01 | – | ≥ 1.5 | – | – | –
Cc1c(=O)n(C)c(Nc2ccc(I)cc2F)c2c(=O)n(C3CC3)c(=O)n(-c3cccc(NS(N)(=O)=O)c3)c12 [Example 4-54] | – | < 0.01 | – | – | 11 | ≥ 1.5 | – | < 0.01 | – | ≥ 1.5 | – | – | –
Cc1c(=O)n(C)c(Nc2ccc(I)cc2F)c2c(=O)n(C3CC3)c(=O)n(-c3ccc(NS(C)(=O)=O)cc3)c12 [Example 4-70] | – | 0.01 to 0.1 | – | – | 31 | ≥ 1.5 | – | < 0.01 | – | ≥ 1.5 | – | ≥ 1.2 | –
Cc1c(=O)n(C)c(Nc2ccc(I)cc2F)c2c(=O)n(C3CC3)c(=O)n(-c3ccc(S(N)(=O)=O)cc3)c12 [Example 4-104] | – | < 0.01 | – | – | – | ≥ 1.5 | – | < 0.01 | – | ≥ 1.5 | – | ≥ 1.2 | –
Cc1c(=O)n(C)c(Nc2ccc(I)cc2F)c2c(=O)n(C3CC3)c(=O)n(-c3ccc4oc(=O)[nH]c4c3)c12 [Example 4-126] | – | < 0.01 | – | – | – | ≥ 1.5 | – | < 0.01 | – | ≥ 1.5 | – | ≥ 1.2 | –
CC(=O)Nc1cccc(-n2c(=O)n(C3CC3)c(=O)c3c(Nc4ccc(I)cc4F)n(C)c(=O)c(C)c32)c1.CC(=O)O [N-{3-[3-Cyclopropyl-5-(2-fluoro-4-iodo-phenylamino)-6,8-dimethyl-2,4,7-trioxo-3,4,6,7-tetrahydro-2H-pyrido[4,3-d]pyrimidin-1-yl]-phenyl}-acetamide Acetic Acid Solvate] | – | – | – | – | – | – | – | – | – | – | – | – | 0.57
